Tests used:
E. coli J3272 TetC = assay: MIC, agar dilution (Table IA); assay type: cell-based; settings: unit assumed
E. faecalis 12201 = assay: MIC, agar dilution; assay type: cell-based; settings: Enterococcus 12201; Table IA; unit assumed
E. coli BAJ9003 = assay: MIC, agar dilution (Table IA); assay type: cell-based; settings: unit assumed
[1] = system: S. aureus UBMS 90-3 (Sensitive); assay: MIC, agar dilution; assay type: cell-based; settings: S. aureus UBMS 90-3; Table IA; unit assumed
[2] = system: S. aureus IVES 2943 (meth. resistant); assay: MIC, agar dilution; assay type: cell-based; settings: S. aureus IVES 2943; Table IA; unit assumed
E. coli UBMS 90-5 = assay: MIC, agar dilution (Table IA); assay type: cell-based; settings: unit assumed
E. coli PRP1 TetA = assay: MIC, agar dilution (Table IA); assay type: cell-based; settings: unit assumed
[3] = system: S. aureus UBMS 90-1 (tetM); assay: MIC, agar dilution; assay type: cell-based; settings: S. aureus UBMS 90-1 TetM; Table IA; unit assumed
E. coli UBMS 88-1 (tetB) = assay: MIC, agar dilution; assay type: cell-based; settings: E. coli UBMS 88-1 TetB; Table IA; unit assumed
E. coli #311 (MP) = assay: MIC, agar dilution (Table IA); assay type: cell-based; settings: unit assumed
[4] = system: Ps. acruginosa ATCC 27853; assay: MIC, agar dilution (Table IA); assay type: cell-based; settings: unit assumed
E. coli J3272 Tet sens. = assay: MIC, agar dilution (Table IA); assay type: cell-based; settings: unit assumed
[5] = system: S. aureus IVES 1983 (meth. resistant); assay: MIC, agar dilution; assay type: cell-based; settings: S. aureus IVES 1983; Table IA; unit assumed
E. coli UBMS 89-1 (tetM) = assay: MIC, agar dilution; assay type: cell-based; settings: E. coli UBMS 89-1 TetM; Table IA; unit assumed
S. mariescens FDOR 8733 = assay: MIC, agar dilution (Table IA); assay type: cell-based; settings: unit assumed
E. coli J3272 TetD = assay: MIC, agar dilution (Table IA); assay type: cell-based; settings: unit assumed
[6] = system: X. maltophilia NEMC 87210; assay: MIC, agar dilution (Table IA); assay type: cell-based; settings: unit assumed
[7] = system: S. aureus UBMS 90-2 (tetM); assay: MIC, agar dilution; assay type: cell-based; settings: S. aureus UBMS 90-2 TetM; Table IA; unit assumed
[8] = system: S. aureus UBMS 88-7 (tetK); assay: MIC, agar dilution; assay type: cell-based; settings: S. aureus UBMS 88-7 TetK; Table IA; unit assumed
[9] = system: E. coli UBMS 89-2 (Sensitive); assay: MIC, agar dilution; assay type: cell-based; settings: E. coli UBMS 89-2 Tet Sens.; Table IA; unit assumed
S. aureus ROSE (MP) = assay: MIC, agar dilution (Table IA); assay type: cell-based; settings: unit assumed
[10] = system: S. haemolyticus AVAH 88-3; assay: MIC, agar dilution; assay type: cell-based; settings: S. hemolyticus AVHAH 88-3; Table IA; unit assumed
[11] = system: S. aureus ATCC 29213 (Sensitive); assay: MIC, agar dilution; assay type: cell-based; settings: S. aureus ATCC 29213; Table IA; unit assumed
[12] = system: S. aureus UBMS 88-5 (tetM); assay: MIC, agar dilution; assay type: cell-based; settings: S. aureus UBMS 88-5 TetM; Table IA; unit assumed
S. aureus NEMC 8769/89-4 = assay: MIC, agar dilution (Table IA); assay type: cell-based; settings: unit assumed
[13] = system: S. aureus Smith (Sensitive); assay: MIC, agar dilution; assay type: cell-based; settings: S. aureus SMITH (MP); Table IA; unit assumed
E. coli J2175 = assay: MIC, agar dilution (Table IA); assay type: cell-based; settings: unit assumed
S. aureus SMITH (sens) [14] = assay: In vivo antibacterial evaluation, acute lethal infection in mice
Text: In Vivo Antibacterial Evaluation (Table VII)

E. coli ATCC 25922 = assay: MIC, agar dilution; assay type: cell-based; settings: E. coli ATCC 25922; Table IA; unit assumed
E. faecalis ATCC 29212 = assay: MIC, agar dilution; assay type: cell-based; settings: E. faecalis ATCC 29212; Table IA; unit assumed
E. coli MC4100 TetB = assay: MIC, agar dilution (Table IA); assay type: cell-based; settings: unit assumed
E. coli UBMS 90-4 (tetM) = assay: MIC, agar dilution; assay type: cell-based; settings: E. coli UBMS 90-4 TetM; Table IA; unit assumed
[15] = system: S. aureus UBMS 88-4 (Sensitive); assay: MIC, agar dilution; assay type: cell-based; settings: S. aureus UBMS 88-4; Table IA; unit assumed
S. aureus SMITH (sens) [16] = assay: In vivo antibacterial evaluation, acute lethal infection in mice; settings: Intraveneous

Row | SMILES | Antibacterial activity (MIC) (E. coli J3272 TetC) | Antibacterial activity (MIC) (E. faecalis 12201) | Antibacterial activity (MIC) (E. coli BAJ9003) | Antibacterial activity (MIC) [1] | Antibacterial activity (MIC) [2] | Antibacterial activity (MIC) (E. coli UBMS 90-5) | Antibacterial activity (MIC) (E. coli PRP1 TetA) | Antibacterial activity (MIC) [3] | Antibacterial activity (MIC) (E. coli UBMS 88-1 (tetB)) | Antibacterial activity (MIC) (E. coli #311 (MP)) | Antibacterial activity (MIC) [4] | Antibacterial activity (MIC) (E. coli J3272 Tet sens.) | Antibacterial activity (MIC) [5] | Antibacterial activity (MIC) (E. coli UBMS 89-1 (tetM)) | Antibacterial activity (MIC) (S. mariescens FDOR 8733) | Antibacterial activity (MIC) (E. coli J3272 TetD) | Antibacterial activity (MIC) [6] | Antibacterial activity (MIC) [7] | Antibacterial activity (MIC) [8] | Antibacterial activity (MIC) [9] | other results
1 | CCCCNCC(=O)Nc1cc(N(C)C)c2c(c1O)C(=O)C1=C(O)C3(O)C(=O)C(C(N)=O)=C(O)C(N(C)C)C3CC1C2.Cl.Cl (stereo not drawn) [PP, [4S-(4alpha,12aalpha)]-4,7-Bis(dimethylamino)-9-[[(butylamino)acetyl]amino)-1,4,4a,5,5a,6,11,12a-octahydro-3,10,12,12a-tetrahydroxy-1,11-dioxo-2-naphthacenecarboxamide dihydrochloride] | 0.5 µg/mL | 0.12 µg/mL | 0.12 µg/mL | 0.25 µg/mL | 2 µg/mL | 0.5 µg/mL | 1 µg/mL | 0.5 µg/mL | 0.5 µg/mL | 0.25 µg/mL | 16 µg/mL | 0.5 µg/mL | 2 µg/mL | 0.25 µg/mL | 2 µg/mL | 0.25 µg/mL | 0.5 µg/mL | 0.5 µg/mL | 2 µg/mL | 0.5 µg/mL | Antibacterial activity (MIC) (S. aureus ROSE (MP)): 2 µg/mL; Antibacterial activity (MIC) [10]: 0.25 µg/mL; Antibacterial activity (MIC) [11]: 0.25 µg/mL; Antibacterial activity (MIC) [12]: 0.5 µg/mL; Antibacterial activity (MIC) (S. aureus NEMC 8769/89-4): 0.12 µg/mL; Antibacterial activity (MIC) [13]: 0.12 µg/mL; Antibacterial activity (MIC) (E. coli J2175): 0.25 µg/mL; ED50 (S. aureus SMITH (sens) [14]; Oral): >16 mg/kg; Antibacterial activity (MIC) (E. coli ATCC 25922): 0.25 µg/mL; Antibacterial activity (MIC) (E. faecalis ATCC 29212): 0.12 µg/mL; Antibacterial activity (MIC) (E. coli MC4100 TetB): 0.5 µg/mL; Antibacterial activity (MIC) (E. coli UBMS 90-4 (tetM)): 0.25 µg/mL; Antibacterial activity (MIC) [15]: 0.25 µg/mL; ED50 (S. aureus SMITH (sens) [16]): 1 to 2 mg/kg
2 | CN(C)CC(=O)Nc1cc(N(C)C)c2c(c1O)C(=O)C1=C(O)C3(O)C(=O)C(C(N)=O)=C(O)C(N(C)C)C3CC1C2.O=S(=O)(O)O.O=S(=O)(O)O (stereo not drawn) [JJ, [4S-(4alpha,12aalpha))-4,7-Bis(dimethylamino)-9-([(dimethylamino)acetyl)amino]-1,4,4a,5,5a,6,11,12a-octahydro-3,10,12,12a-tetrahydroxy-1,11-dioxo-2-naphthacenecarboxamide disulfate] | 1 µg/mL | 0.12 µg/mL | 0.03 µg/mL | 0.12 µg/mL | 2 µg/mL | 0.25 µg/mL | 2 µg/mL | 0.25 µg/mL | 0.25 µg/mL | 0.25 µg/mL | 8 µg/mL | 0.25 µg/mL | 2 µg/mL | 0.25 µg/mL | 4 µg/mL | 0.12 µg/mL | 0.5 µg/mL | 0.25 µg/mL | 1 µg/mL | 0.25 µg/mL | Antibacterial activity (MIC) (S. aureus ROSE (MP)): 2 µg/mL; Antibacterial activity (MIC) [10]: 0.25 µg/mL; Antibacterial activity (MIC) [11]: 0.03 µg/mL; Antibacterial activity (MIC) [12]: 0.25 µg/mL; Antibacterial activity (MIC) (S. aureus NEMC 8769/89-4): 0.06 µg/mL; Antibacterial activity (MIC) [13]: 0.12 µg/mL; Antibacterial activity (MIC) (E. coli J2175): 0.25 µg/mL; ED50 (S. aureus SMITH (sens) [14]; Oral): 9.6 mg/kg; ED50 (S. aureus SMITH (sens) [14]; Subcutaneous): 0.66 mg/kg; Antibacterial activity (MIC) (E. coli ATCC 25922): 0.25 µg/mL; Antibacterial activity (MIC) (E. faecalis ATCC 29212): 0.12 µg/mL; Antibacterial activity (MIC) (E. coli MC4100 TetB): 0.25 µg/mL; Antibacterial activity (MIC) (E. coli UBMS 90-4 (tetM)): 0.25 µg/mL; Antibacterial activity (MIC) [15]: 0.25 µg/mL; ED50 (S. aureus SMITH (sens) [16]): 0.61 mg/kg
3 | CC(C)CNCC(=O)Nc1cc(N(C)C)c2c(c1O)C(=O)C1=C(O)C3(O)C(=O)C(C(N)=O)=C(O)C(N(C)C)C3CC1C2.Cl.Cl (stereo not drawn) [TT, [4S-(4alpha,12aalpha)]-4,7-Bis(dimethylamino)-1,4,4a,5,5a,6,11,12a-octahydro-3,10,12,12a-tetrahydroxy-9-[[[(2-methylpropyl)amino]acetyl]amino)-1,11-dioxo-2-naphthacenecarboxamide dihydrochloride] | 0.5 µg/mL | 0.25 µg/mL | 0.06 µg/mL | 0.12 µg/mL | 2 µg/mL | 0.5 µg/mL | 2 µg/mL | 0.25 µg/mL | 0.5 µg/mL | 0.5 µg/mL | 16 µg/mL | 0.5 µg/mL | 2 µg/mL | 0.25 µg/mL | 4 µg/mL | 0.12 µg/mL | 0.5 µg/mL | 0.25 µg/mL | 2 µg/mL | 0.5 µg/mL | Antibacterial activity (MIC) (S. aureus ROSE (MP)): 2 µg/mL; Antibacterial activity (MIC) [10]: 0.5 µg/mL; Antibacterial activity (MIC) [11]: 0.25 µg/mL; Antibacterial activity (MIC) [12]: 0.25 µg/mL; Antibacterial activity (MIC) (S. aureus NEMC 8769/89-4): 0.03 µg/mL; Antibacterial activity (MIC) [13]: 0.12 µg/mL; Antibacterial activity (MIC) (E. coli J2175): 0.5 µg/mL; ED50 (S. aureus SMITH (sens) [14]; Oral): 8 to 16 mg/kg; Antibacterial activity (MIC) (E. coli ATCC 25922): 0.5 µg/mL; Antibacterial activity (MIC) (E. faecalis ATCC 29212): 0.25 µg/mL; Antibacterial activity (MIC) (E. coli MC4100 TetB): 0.5 µg/mL; Antibacterial activity (MIC) (E. coli UBMS 90-4 (tetM)): 0.5 µg/mL; Antibacterial activity (MIC) [15]: 0.25 µg/mL; ED50 (S. aureus SMITH (sens) [16]): 1 to 2 mg/kg

From patent USRE40086E1, “Method for treating bacterial infection with novel 7-substituted-9-substituted amino 6-demethyl-6-deoxytetracyclines” (Wyeth Holdings Corporation, priority 1991, dated 2008)
